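Cells were grown in 96-well plates and exposed to each compound for 48 hours at five concentrations; endpoints were interpolated linearly between bracketing concentrations, or set to the highest concentration if not reached. Here, GI50 denotes the concentration required for 50% inhibition of growth. TGI: concentration producing complete growth inhibition.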
Assays:
Experiment in all cases: NCI-60 cell line screen, 48 h
[1] = test system: 786-0 renal
[2] = test system: EKVX NSCLC
[3] = test system: HOP-62 NSCLC
[4] = test system: KM12 colon
[5] = test system: OVCAR-3 ovarian
[6] = test system: OVCAR-8 ovarian
[7] = test system: SNB-19 CNS
[8] = test system: DU-145 prostate
[9] = test system: MCF7 breast
[10] = test system: MDA-MB-231 breast

Row | Structure (SMILES) | TGI [1] [µM] | TGI [2] [µM] | TGI [3] [µM] | TGI [4] [µM] | TGI [5] [µM] | TGI [6] [µM] | TGI [7] [µM] | TGI [8] [µM] | TGI [9] [µM] | GI50 [1] [µM] | GI50 [2] [µM] | GI50 [3] [µM] | GI50 [4] [µM] | GI50 [9] [µM] | GI50 [10] [µM] | TGI [10] [µM] | GI50 [5] [µM] | GI50 [6] [µM] | GI50 [7] [µM]
1 | CCc1cccc(C(C)C)c1NC(=O)C(=O)C(CC(=O)Nc1ccc(Cl)c(Cl)c1)C(=O)OC (centres undefined) | > 100 | > 100 | > 100 | > 100 | > 100 | > 100 | > 100 | – | – | – | – | – | – | – | – | – | – | – | –
2 | C1=CC=C2NCCCNC3=CC=CC=CC3=NCCCN=C2C=C1 | > 100 | > 100 | > 100 | > 100 | > 100 | > 100 | > 100 | – | – | – | – | – | – | – | – | – | – | – | –
3 | COc1cc(OC)c(C2CC=Cc3c(OC)cc(OC)c(OC)c32)cc1OC (centres undefined) | > 100 | > 100 | > 100 | > 100 | > 100 | > 100 | – | – | – | – | – | – | – | – | – | – | – | – | –
4 | O=C(CC1(O)C(=O)Nc2c(Cl)cc(Cl)cc21)c1cccc2ccccc12 (centres undefined) | 29.7 | 29.7 | 30.6 | 31.5 | 30 | 32.2 | 27.9 | – | – | – | – | – | – | – | – | – | – | – | –
5 | COCCCNC(=O)CC(=O)NCCCOC | > 100 | > 100 | > 100 | > 100 | > 100 | > 100 | > 100 | – | – | – | – | – | – | – | – | – | – | – | –
6 | CCOC(=O)C(=Cc1ccc(Oc2ccccc2)cc1)C(=O)OCC | 3.47 | 29.4 | 11.2 | 19 | 19.1 | 10.7 | 17.5 | 27.5 | 18.5 | – | – | – | – | – | – | – | – | – | –
7 | CCC(=O)c1c(NOC2OC(COC(C)=O)C(OC(C)=O)C(OC(C)=O)C2OC(C)=O)nc(OC)n(C)c1=O (centres undefined) | > 100 | > 100 | > 100 | > 100 | – | > 100 | > 100 | – | – | – | – | – | – | – | – | – | – | – | –
8 | CC(=O)c1ccc(NC(=O)C(=O)Nn2c(=S)[nH]c3ccccc3c2=O)cc1 | > 100 | > 100 | > 100 | > 100 | > 100 | > 100 | > 100 | – | – | – | – | – | – | – | – | – | – | – | –
9 | C=C(Br)N(CC)CC | > 100 | > 100 | > 100 | > 100 | > 100 | > 100 | > 100 | – | – | – | – | – | – | – | – | – | – | – | –
10 | Fc1ccccc1C1CC(c2ccc3ccccc3c2)=Nc2ccccc2S1 (centres undefined) | > 100 | > 100 | > 100 | > 100 | > 100 | > 100 | > 100 | – | – | – | – | – | – | – | – | – | – | – | –
11 | C=C1CCC2C(C)(C)CCC[C@]2(C)[C@H]1CO (some centres undefined) | > 100 | > 100 | > 100 | > 100 | > 100 | > 100 | > 100 | – | > 100 | 57.3 | 53.5 | > 100 | 87.7 | 49.1 | 50.2 | > 100 | > 100 | 76.1 | > 100
12 | COC1OC(COCc2ccc(Cl)cc2)C(OCc2ccc(Cl)cc2)C1N=[N+]=[N-] (centres undefined) | 16.8 | > 100 | – | > 100 | > 100 | > 100 | > 100 | – | – | – | – | – | – | – | – | – | – | – | –
13 | CCCCCCCCCCCCCP(=O)(O)OCC | > 100 | > 100 | > 100 | > 100 | > 100 | > 100 | > 100 | – | – | – | – | – | – | – | – | – | – | – | –
14 | O=C1C2C3C=CC(C2C(=O)N1COP(=O)(O)O)C1C2C(=O)N(COP(=O)(O)O)C(=O)C2C31 (centres undefined) | > 100 | > 100 | > 100 | > 100 | > 100 | > 100 | > 100 | – | – | – | – | – | – | – | – | – | – | – | –
15 | O=C(Cc1nc2ccccc2s1)Nc1cccc(C(F)(F)F)c1 | 27.2 | 38.9 | 32.7 | 30.5 | 31.8 | 38.1 | 32.3 | – | – | – | – | – | – | – | – | – | – | – | –
16 | CN(C)CCNC(=O)c1cccc2c1nc(-c1ccccc1)c1ccccc12 | 16.6 | 25.7 | 18.5 | 20.1 | 20.7 | 19.6 | 23.8 | – | – | – | – | – | – | – | – | – | – | – | –
17 | O=C(CCC(=O)C(C(=O)c1ccccc1)c1ccccc1)Nc1cccc(C(F)(F)F)c1 (centres undefined) | > 100 | > 100 | – | > 100 | > 100 | > 100 | > 100 | – | – | – | – | – | – | – | – | – | – | – | –
18 | Cc1ccc(S(=O)(=O)OCC23CCC(CC2)C2CC23)cc1 (centres undefined) | > 100 | – | > 100 | – | > 100 | > 100 | > 100 | – | – | – | – | – | – | – | – | – | – | – | –
19 | CC1(C)Cc2cc(C(=O)O)c3c(c2C1=O)COCC3 | > 100 | > 100 | > 100 | > 100 | > 100 | > 100 | > 100 | – | – | – | – | – | – | – | – | – | – | – | –
20 | CS(=O)(=O)N(N(CCCl)S(=O)(=O)c1ccccc1)S(C)(=O)=O | > 100 | > 100 | > 100 | > 100 | > 100 | > 100 | > 100 | – | – | – | – | – | – | – | – | – | – | – | –
21 | COC(=O)CCC(=O)CC(=O)C(=O)Nc1c(Cl)cc([N+](=O)[O-])cc1Cl | > 100 | > 100 | > 100 | > 100 | > 100 | > 100 | > 100 | – | – | – | – | – | – | – | – | – | – | – | –
